Measured values: article PMC7018803, “A randomized, placebo-controlled, phase 1 study to evaluate the effects of TAK-063 on ketamine-induced changes in fMRI BOLD signal in healthy subjects” (Psychopharmacology, 2019)

Columns and labels:
[1] = test system: healthy human subjects; conditions: cited from earlier work
[2] = Plasma ketamine concentrations during intravenous bolus plus continuous infusion; type: in vivo; conditions: human
Procedure: (§1) Subjects checked in on day − 1 of each treatment period during which vital signs, electrocardiogram (ECG), and laboratory safety tests were repeated. On day 1 of each treatment period, subjects received a 3-, 10-, or 30-mg TAK-063 dose or placebo tablets. Participants then relaxed, slept, or watched movies while remaining in the research environment. Ketamine (0.12 mg/kg intravenous bolus over 60 s followed by a continuous infusion of 0.31 mg/kg/h over approximately 150 min) was administered 4 h after TAK-063 or placebo (Fig. 1). This ketamine dose was based on a previous study that achieved steady-state concentrations of 75 ng/mL and provided a robust BOLD signal with minimal psychotomimetic symptoms (De Simoni et al. [2013]).
Blood samples were collected for the determination of TAK-063 and ketamine concentrations, and ketamine concentrations were used to verify intravenous delivery of ketamine. Blood samples for determination of TAK-063 concentration were collected at pre-dose and at 0.5, 2, 3, 4.5, 6, 8, 10, 12, and 24 h post dose. Blood samples for determination of ketamine concentration were collected at 0.5, 1, 2, and 2.5 h after administration of ketamine. The target ketamine concentration was established at 75 ng/mL. PK samples were not collected from the arm in which ketamine was administered.

[3] = test system: healthy male subjects; assay: Ketamine-induced changes in fMRI BOLD signal during resting state; type: in vivo, human
Procedure: as §1
The scanning protocol for the current study was very comprehensive and included multiple MR approaches. This publication reports the BOLD fMRI data for the working memory task, but also resting state fMRI. The magnetic scanning portion of the neuroimaging test battery was initiated 20 min before ketamine dosing. Imaging was performed using a 3 Tesla Siemens Trio scanner. The MR scanning protocol was initiated 20 min before ketamine dosing; prior to scanning, a structural magnetization prepared rapid gradient echo (MPRAGE) scan was collected. As part of the scanning protocol, each subject received 20 min of scanning − 10 min arterial spin labeling (ASL) plus 10 min resting BOLD prior to ketamine infusion. After ketamine infusion, the resting state fMRI BOLD acquisition continued for an additional 10 min. Next, a Spatial Working Memory task-induced fMRI BOLD acquisition was performed for 15 min. Following these BOLD acquisitions, another 10 min ASL scan was acquired and a 10-min T1 relaxometry scan was conducted. The MR scanning sequence ended with a 5-min MPRAGE acquisition.
Fifty sequential gradient-echo echoplanar images (EPIs) sensitive to blood oxygenation level-dependent (BOLD) signal were collected in contiguous slices of 6-mm thickness, with 3000-ms repetition time, 40-ms echo time, 20 × 20-cm field of view, a 64 × 64 image matrix, 70° flip angle, and an in-plane resolution of 3 × 3 mm. A working memory challenge based on the expectancy A-X Continuous Performance Test (AX-CPT) paradigm was presented. The AX-CPT task was implemented in Eprime and presents 144 trials in four blocks of 36 trials. Before scanning, participants practiced the task (Barch et al. [2001]; MacDonald et al. [2003]).
We conducted a number of pre-processing steps to standardize examination of data after acquisition. These steps included (a) using the anatomical image (T1 weighted MPRAGE acquired for each subject at the beginning of the imaging session) to determine the parameters for spatial normalization to the EPI template image supplied with statistical parametric mapping (SPM) using a 12-parameter transformation; (b) registering functional images to correct for subject movement during the experimental paradigm; (c) normalizing functional images to transform images from analyzed subjects into the same standard space; (d) smoothing images (8-mm full width at half maximum [FWHM]) to minimize normalization artifacts and improve signal to noise ratio; (e) applying a high pass filter of 1200 s to the data following spatial smoothing to minimize the influence of very low frequency noise present in fMRI BOLD data without distorting the ketamine response profile. […]

[4] = 0.12 mg/kg iv bolus then 0.31 mg/kg/h infusion; ref De Simoni et al. [2013]; cited from earlier work

| SMILES | ketamine-induced changes in BOLD signal ([1]; ref Doyle et al. [2013], Shcherbinin et al. [2015]) | ketamine-induced changes in brain perfusion (ASL) ([1]; ref Shcherbinin et al. [2015]) | concentration at 30 min ([2]; 30 min post dose, with placebo or TAK-063 3 to 30 mg, range of means) [ng/mL] | Cmax ([2]; during continuous infusion, range of means across regimens) [ng/mL] | Tmax ([2]; range across regimens) [h] | activation in ROIs ([3]; percent BOLD signal change, resting state (Fig. 7)) | effect on fMRI BOLD resting signal ([3]; placebo group, most regions studied) | effect on fMRI BOLD in cingulate/BA25 ([3]; placebo group, resting state) | steady-state concentration [4] [ng/mL] |
| --- | --- | --- | --- | --- | --- | --- | --- | --- | --- |
| Cc1nc2n(c(=O)c1CCN1CCC(c3noc4cc(F)ccc34)CC1)CCCC2 [risperidone] | reversed | increased ketamine-induced perfusion changes | – | – | – | – | – | – | – |
| CNC1(c2ccccc2Cl)CCCCC1=O (stereo not drawn) [ketamine] | – | – | 69.9 to 83.3 | 168 to 179 | 2.3 to 2.5 | increased activation in all ROIs examined | increased fMRI BOLD resting signal | decrease in fMRI BOLD | 75 |
